Source: PubChem BioAssay AID1224 (NMMLSC, 2008)
Active and inactive are the calls of the source. How the calls were made is not given here.

Target: G-protein coupled estrogen receptor 1 (Homo sapiens) (UniProt Q99527)
Experiment: fluorescent ligand displacement from GPER – cell-based, dose response (AID 1224)
Conditions: GPR30-expressing cells; for EC50: fluorescent ligand binding displacement

| EC50 | remaining binding, lower = displacement (at 100 µM (top of the series)) | SMILES |
| --- | --- | --- |
| > 10000 nM (inactive) |  | CC(=O)Oc1ccc(C2Nc3c(C(=O)O)ccc([N+](=O)[O-])c3C3C=CCC32)cc1 (stereo not drawn) |
|  | inactive | CC(=O)c1ccc2c(c1)C1C=CCC1C(c1cccc([N+](=O)[O-])c1)N2 (stereo not drawn) |
| 62.3 nM |  | O=C(O)c1ccc([N+](=O)[O-])c2c1NC(c1ccccc1)C1CC=CC21 (stereo not drawn) |
